Test results: patent US11407740B2 (priority 2018, dated 2022)
Values after ≈ are worked out from the molar mass of the structure shown.

System: E. coli
Experiment: Bacterial susceptibility testing, MIC by broth microdilution (CLSI)
Details: for E. coli MIC: broth microdilution, 35° C., 18-24 h; for MIC: Escherichia coli, read-out: E. coli MIC, broth microdilution, 35° C., 18-24 h

Compound: O=C(CO)NC1CCN(Cc2ccc(C#Cc3ccc(C(CO)Cc4nc[nH]c(=O)c4O)cc3)cc2)CC1 (centres unmarked) [Compound 241]
- E. coli MIC: B (B: >1 μg/mL to ≤8.0 μg/mL)

Compound: O=c1[nH]cnc(CC(CO)c2ccc(C#Cc3ccc(CN4CC(N5CCOCC5)C4)cc3)cc2)c1O (centres unmarked) [Compound 51]
- MIC: 1 to 8 µg/mL (≈ 2 to 16 µM)

Compound: N#CC1CCN(Cc2ccc(C#Cc3ccc([C@@H](CO)Cc4nc[nH]c(=O)c4O)cc3)cc2)C1 (some centres unmarked) [Compound 33]
- MIC: < 1 µg/mL

Compound: O=c1[nH]cnc(C[C@@H](CNCC(F)F)c2ccc(C#Cc3ccc(CN4CCOCC4)cc3)cc2)c1O (single isomer, unassigned) [Compound 116]
- MIC: 1 to 8 µg/mL (≈ 1.97 to 15.7 µM)

Compound: CO[C@@H]1CCN(Cc2ccc(C#Cc3ccc(C(CNCC(C)Cl)Cc4nc[nH]c(=O)c4O)cc3)cc2)C1 (mixture of isomers) [Compound 125]
- MIC: 1 to 8 µg/mL

Compound: COCCNCC(Cc1nc[nH]c(=O)c1O)c1ccc(C#Cc2ccc(CN3CCOCC3)cc2)cc1 (centres unmarked) [Compound 164]
- MIC: 1 to 8 µg/mL (≈ 1.99 to 15.9 µM)

Compound: COC1CN(Cc2ccc(C#Cc3ccc(C(CN[C@@H](C)CF)Cc4nc[nH]c(=O)c4O)c(F)c3)cc2)C1 (single isomer, unassigned) [Compound 238]
- MIC: < 1 µg/mL

Compound: C[C@@H](CF)NCC(Cc1nc[nH]c(=O)c1O)c1ccc(C#Cc2ccc(CN3CC[C@@H](C#N)C3)cc2)cc1 (mixture of isomers) [Compound 91]
- MIC: < 1 µg/mL

Compound: CO[C@@H]1CCN(Cc2ccc(C#Cc3ccc(C(CNCC(C)F)Cc4nc[nH]c(=O)c4O)cc3)cc2)C1 (single isomer, unassigned) [Compound 136]
- E. coli MIC: D (D: >32 μg/mL)

Compound: C[C@@H](CO)NCC(Cc1nc[nH]c(=O)c1O)c1ccc(C#Cc2ccc(CN[C@H]3CCOC3)cc2)cc1 (mixture of isomers) [Compound 144]
- MIC: 1 to 8 µg/mL

Compound: N=[S@]1(=O)CC[C@@H](NCc2ccc(C#Cc3ccc(C(CO)Cc4nc[nH]c(=O)c4O)cc3)cc2)C1 (mixture of isomers) [Compound 150]
- MIC: 1 to 8 µg/mL

Compound: NCC1CN(Cc2ccc(C#Cc3ccc(C(CO)Cc4nc[nH]c(=O)c4O)cc3)cc2)CCO1 (centres unmarked) [Compound 258]
- MIC: 1 to 8 µg/mL (≈ 2.11 to 16.9 µM)

Compound: CN(Cc1ccc(C#Cc2ccc(C(CO)Cc3nc[nH]c(=O)c3O)cc2)cc1)[C@@H]1CCNC1 (mixture of isomers) [Compound 260]
- MIC: 1 to 8 µg/mL

Compound: N#CCCNCC(Cc1nc[nH]c(=O)c1O)c1ccc(C#Cc2ccc(CN3CCOCC3)cc2)cc1 (centres unmarked) [Compound 130]
- MIC: 1 to 8 µg/mL (≈ 2.01 to 16.1 µM)

Compound: CS(=O)(=O)N[C@H](Cc1nc[nH]c(=O)c1O)c1ccc(C#Cc2ccc(CN3CCNC[C@H]3CO)cc2)cc1 [Compound 291]
- MIC: < 1 µg/mL

Compound: COC1CN(Cc2ccc(C#Cc3ccc(C(Cc4nc[nH]c(=O)c4O)CN4CC(F)C4)cc3)cc2)C1 (centres unmarked) [Compound 159]
- E. coli MIC: A (A: ≤1 μg/mL)

Compound: CO[C@@H]1CCN(Cc2ccc(C#Cc3ccc(C(CNCC(C)F)Cc4nc[nH]c(=O)c4O)cc3)cc2)C1 (single isomer, unassigned) [Compound 137]
- E. coli MIC: B (B: >1 μg/mL to ≤8.0 μg/mL)

Compound: CN1CC[C@@H](NCc2ccc(C#Cc3ccc(C(CO)Cc4nc[nH]c(=O)c4O)cc3)cc2)C1 (mixture of isomers) [Compound 261]
- MIC: 1 to 8 µg/mL

Compound: O=C(NCC(F)F)C(Cc1nc[nH]c(=O)c1O)c1ccc(C#Cc2ccc(Cn3ccnc3CO)cc2)cc1 (centres unmarked) [Compound 29]
- MIC: < 1 µg/mL

Compound: NC(Cc1nc[nH]c(=O)c1O)c1ccc(C#Cc2ccc(CN3CCOCC3)cc2)cc1 (centres unmarked) [Compound 65]
- MIC: < 1 µg/mL

Compound: O=c1[nH]cnc(CC(CO)c2ccc(C#Cc3cnn(C4CCOCC4)c3)cc2)c1O (centres unmarked) [Compound 202]
- MIC: 1 to 8 µg/mL (≈ 2.38 to 19 µM)

Compound: O=C(CO)NC1CCN(Cc2ccc(C#Cc3ccc(C(CO)Cc4nc[nH]c(=O)c4O)cc3)cc2)CC1 (centres unmarked) [Compound 240]
- MIC: < 1 µg/mL

Compound: Cn1cc(C#Cc2ccc(C(N)Cc3nc[nH]c(=O)c3O)cc2)cn1 (centres unmarked) [Compound 200]
- MIC: 1 to 8 µg/mL (≈ 2.98 to 23.9 µM)

Compound: O=c1[nH]cnc(CC(CNC2CC2)c2ccc(C#Cc3ccc(CN4CCOCC4)cc3)cc2)c1O (centres unmarked) [Compound 120]
- E. coli MIC: B (B: >1 μg/mL to ≤8.0 μg/mL)

Compound: C[C@@H](CF)NCC(Cc1nc[nH]c(=O)c1O)c1ccc(C#Cc2ccc(CN3CC(CC#N)C3)cc2)cc1 (mixture of isomers) [Compound 95]
- MIC: < 1 µg/mL

Compound: COC1CN(Cc2ccc(C#Cc3ccc([C@@H](Cc4nc[nH]c(=O)c4O)NS(C)(=O)=O)cc3)cc2)C1 (single isomer, unassigned) [Compound 299]
- MIC: < 1 µg/mL

Compound: O=c1[nH]cnc(CC(CO)c2ccc(C#Cc3ccc(CN[C@H]4CCOC4)cc3)cc2)c1O (single isomer, unassigned) [Compound 9]
- E. coli MIC: B (B: >1 μg/mL to ≤8.0 μg/mL)

Compound: COC1CN(Cc2ccc(C#Cc3ccc([C@@H](Cc4nc[nH]c(=O)c4O)CN(C)C4CC4)cc3)cc2)C1 (single isomer, unassigned) [Compound 219]
- MIC: < 1 µg/mL

Compound: COC1CN(Cc2ccc(C#Cc3ccc(C(Cc4nc[nH]c(=O)c4O)CN4CC(OC)C4)cc3)cc2)C1 (centres unmarked) [Compound 175]
- MIC: 1 to 8 µg/mL (≈ 1.94 to 15.5 µM)

Compound: COC1CN(Cc2ccc(C#Cc3ccc(C(CNC(C)(C)CF)Cc4nc[nH]c(=O)c4O)cc3)cc2)C1 (centres unmarked) [Compound 221]
- MIC: < 1 µg/mL

Compound: O=C1NC(Cc2nc[nH]c(=O)c2O)c2ccc(C#Cc3ccc(CN4CCOCC4)cc3)cc21 (centres unmarked) [Compound 210]
- MIC: 1 to 8 µg/mL (≈ 2.19 to 17.5 µM)

Compound: COC1CN(Cc2ccc(C#Cc3ccc(C(CNCC(C)F)Cc4nc[nH]c(=O)c4O)cc3)cc2)C1 (centres unmarked) [Compound 101]
- MIC: < 1 µg/mL

Compound: O=c1[nH]cnc(CC(CO)c2ccc(C#Cc3ccc(CN[C@H]4CCS(=O)(=O)C4)cc3)cc2)c1O (single isomer, unassigned) [Compound 39]
- MIC: < 1 µg/mL

Compound: Cn1cc(C#Cc2ccc(C(CO)Cc3nc[nH]c(=O)c3O)cc2)cn1 (centres unmarked) [Compound 197]
- MIC: 8 to 32 µg/mL (≈ 22.8 to 91.3 µM)

Compound: O=c1[nH]cnc(CC(CO)c2ccc(C#Cc3ccc(CN4CCOCC4)cc3)cc2)c1O (centres unmarked) [Compound 2]
- MIC: < 1 µg/mL

Compound: O=C(NCCF)C(Cc1nc[nH]c(=O)c1O)c1ccc(C#Cc2ccc(CN[C@H]3CCOC3)cc2)cc1 (mixture of isomers) [Compound 30]
- MIC: 1 to 8 µg/mL

Compound: O=c1[nH]cnc(CC(CNCCCF)c2ccc(C#Cc3ccc(CN4CCOCC4)cc3)cc2)c1O (centres unmarked) [Compound 105]
- MIC: < 1 µg/mL

Compound: COC1CCN(Cc2ccc(C#Cc3ccc(C(N)Cc4nc[nH]c(=O)c4O)cc3)cc2)CC1 (centres unmarked) [Compound 174]
- MIC: < 1 µg/mL

Compound: O=c1[nH]cnc(CC(CNCCCF)c2ccc(C#Cc3ccc(CN4CCOCC4)cc3)cc2)c1O (centres unmarked) [Compound 107]
- E. coli MIC: A (A: ≤1 μg/mL)

Compound: NCC(Cc1nc[nH]c(=O)c1O)c1ccc(C#Cc2ccc(CN3CCOCC3)cc2)cc1 (centres unmarked) [Compound 18]
- MIC: 1 to 8 µg/mL (≈ 2.25 to 18 µM)

Compound: NC1(Cc2ccc(C#Cc3ccc(C(CO)Cc4nc[nH]c(=O)c4O)cc3)cc2)CCOCC1 (centres unmarked) [Compound 64]
- MIC: 1 to 8 µg/mL (≈ 2.18 to 17.4 µM)

Compound: Cn1cc(C#Cc2ccc(C(CNCCF)Cc3nc[nH]c(=O)c3O)cc2)cn1 (centres unmarked) [Compound 199]
- MIC: 1 to 8 µg/mL (≈ 2.53 to 20.2 µM)

Compound: O=c1[nH]cnc(CC(CO)c2ccc(/C=C/c3ccc(CN[C@H]4CCOC4)cc3)cc2)c1O (mixture of isomers) [Compound 198]
- MIC: 8 to 32 µg/mL

Compound: CC(F)CNCC(Cc1nc[nH]c(=O)c1O)c1ccc(C#Cc2ccc(CCN3CCOCC3)cc2)cc1 (centres unmarked) [Compound 138]
- MIC: 1 to 8 µg/mL (≈ 1.93 to 15.4 µM)

Compound: COC1CN(Cc2ccc(C#Cc3ccc(C(CNC(CO)CF)Cc4nc[nH]c(=O)c4O)cc3)cc2)C1 (centres unmarked) [Compound 244]
- MIC: 1 to 8 µg/mL (≈ 1.92 to 15.4 µM)

Compound: O=C(CO)NC[C@@H]1CCCN1Cc1ccc(C#Cc2ccc(C(CO)Cc3nc[nH]c(=O)c3O)cc2)cc1 (mixture of isomers) [Compound 158]
- MIC: 1 to 8 µg/mL

Compound: O=C(NCCF)C(Cc1nc[nH]c(=O)c1O)c1ccc(C#Cc2ccc(CN3CCOCC3)cc2)cc1 (centres unmarked) [Compound 19]
- MIC: < 1 µg/mL
